Source: PubChem BioAssay (NCI)
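GI50: concentration for 50% inhibition of growth. TGI: concentration producing complete growth inhibition.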

Assays:
Assay in all cases: inhibition of tumour cell growth, NCI panel, 384-well format
CCRF-CEM leukemia = test system: CCRF-CEM leukemia
SK-MEL-5 melanoma = test system: SK-MEL-5 melanoma
A498 renal = test system: A498 renal
HL-60(TB) leukemia = test system: HL-60(TB) leukemia
SF-295 CNS = test system: SF-295 CNS
DU-145 prostate = test system: DU-145 prostate
HOP-62 NSCLC = test system: HOP-62 NSCLC
LOX IMVI melanoma = test system: LOX IMVI melanoma
NCI-H322M lung = test system: NCI-H322M lung
A549 NSCLC = test system: A549 NSCLC
TK-10 renal = test system: TK-10 renal
OVCAR-8 ovarian = test system: OVCAR-8 ovarian
SK-MEL-28 melanoma = test system: SK-MEL-28 melanoma
MALME-3M melanoma = test system: MALME-3M melanoma
HS 578T breast = test system: HS 578T breast
OVCAR-5 ovarian = test system: OVCAR-5 ovarian
NCI-H522 lung = test system: NCI-H522 lung
M14 melanoma = test system: M14 melanoma
KM12 colon = test system: KM12 colon
NCI-H226 lung = test system: NCI-H226 lung
IGROV1 ovarian = test system: IGROV1 ovarian
RXF 393 renal = test system: RXF 393 renal
SF-539 CNS = test system: SF-539 CNS
OVCAR-4 ovarian = test system: OVCAR-4 ovarian
SNB-75 CNS = test system: SNB-75 CNS
ACHN renal = test system: ACHN renal
MDA-MB-231 breast = test system: MDA-MB-231 breast
SF-268 CNS = test system: SF-268 CNS
MCF7 breast = test system: MCF7 breast
HT29 colon = test system: HT29 colon
SW-620 colon = test system: SW-620 colon
PC-3 prostate = test system: PC-3 prostate
CAKI-1 renal = test system: CAKI-1 renal
SK-OV-3 ovarian = test system: SK-OV-3 ovarian
SNB-19 CNS = test system: SNB-19 CNS
SN12C renal = test system: SN12C renal
BT-549 breast = test system: BT-549 breast
MDA-MB-468 breast = test system: MDA-MB-468 breast
HCT-15 colon = test system: HCT-15 colon
COLO 205 colon = test system: COLO 205 colon
MOLT-4 leukemia = test system: MOLT-4 leukemia
NCI-H460 NSCLC = test system: NCI-H460 NSCLC
786-0 renal = test system: 786-0 renal
RPMI-8226 leukemia = test system: RPMI-8226 leukemia
SR leukemia = test system: SR leukemia
OVCAR-3 ovarian = test system: OVCAR-3 ovarian
UACC-257 melanoma = test system: UACC-257 melanoma
HCT-116 colon = test system: HCT-116 colon
UO-31 renal = test system: UO-31 renal
UACC-62 melanoma = test system: UACC-62 melanoma
EKVX NSCLC = test system: EKVX NSCLC
U251 glioblastoma = test system: U251 glioblastoma
NCI-H23 lung = test system: NCI-H23 lung
MDA-MB-435 melanoma = test system: MDA-MB-435 melanoma
T-47D breast = test system: T-47D breast

SMILES: COc1ccc2[nH]c3c(c2c1)CCN[C@]31CS[C@@H]2c3c(OC(C)=O)c(C)c4c(c3[C@H](COC1=O)N1[C@@H]2[C@H]2c3c(cc(C)c(OC)c3O)C[C@@H]([C@@H]1O)N2C)OCO4
- GI50 (CCRF-CEM leukemia): 19.2 pM
- TGI (CCRF-CEM leukemia): 34.8 pM
- GI50 (SK-MEL-5 melanoma): 87.4 pM
- TGI (SK-MEL-5 melanoma): 243 pM
- GI50 (A498 renal): 1160 pM
- TGI (A498 renal): 2960 pM
- GI50 (HL-60(TB) leukemia): 52.4 pM
- TGI (HL-60(TB) leukemia): 98.2 pM
- GI50 (SF-295 CNS): 57.3 pM
- TGI (SF-295 CNS): 115 pM
- GI50 (DU-145 prostate): 196 pM
- TGI (DU-145 prostate): 367 pM
- GI50 (HOP-62 NSCLC): 54.9 pM
- TGI (HOP-62 NSCLC): 115 pM
- GI50 (LOX IMVI melanoma): 68.2 pM
- TGI (LOX IMVI melanoma): 180 pM
- GI50 (NCI-H322M lung): 522 pM
- TGI (NCI-H322M lung): 1290 pM
- GI50 (A549 NSCLC): 650 pM
- TGI (A549 NSCLC): 2910 pM
- GI50 (TK-10 renal): 2640 pM
- TGI (TK-10 renal): 7170 pM
- GI50 (OVCAR-8 ovarian): 126 pM
- TGI (OVCAR-8 ovarian): 487 pM
- GI50 (SK-MEL-28 melanoma): 440 pM
- TGI (SK-MEL-28 melanoma): 877 pM
- GI50 (MALME-3M melanoma): 96.7 pM
- TGI (MALME-3M melanoma): 273 pM
- GI50 (HS 578T breast): 130 pM
- TGI (HS 578T breast): 372 pM
- GI50 (OVCAR-5 ovarian): 510 pM
- GI50 (NCI-H522 lung): 77.9 pM
- TGI (NCI-H522 lung): 261 pM
- GI50 (M14 melanoma): 82.7 pM
- TGI (M14 melanoma): 191 pM
- GI50 (KM12 colon): 1440 pM
- TGI (KM12 colon): 3960 pM
- GI50 (NCI-H226 lung): 109 pM
- TGI (NCI-H226 lung): 452 pM
- GI50 (IGROV1 ovarian): 416 pM
- TGI (IGROV1 ovarian): 7860 pM
- GI50 (RXF 393 renal): 49.3 pM
- TGI (RXF 393 renal): 111 pM
- GI50 (SF-539 CNS): 58.7 pM
- TGI (SF-539 CNS): 111 pM
- GI50 (OVCAR-4 ovarian): 2590 pM
- TGI (OVCAR-4 ovarian): 5770 pM
- GI50 (SNB-75 CNS): 80.9 pM
- TGI (SNB-75 CNS): 224 pM
- GI50 (ACHN renal): 435 pM
- TGI (ACHN renal): 1610 pM
- GI50 (MDA-MB-231 breast): 786 pM
- TGI (MDA-MB-231 breast): 2420 pM
- GI50 (SF-268 CNS): 70.5 pM
- TGI (SF-268 CNS): 186 pM
- GI50 (MCF7 breast): 120 pM
- TGI (MCF7 breast): 5950 pM
- GI50 (HT29 colon): 123 pM
- TGI (HT29 colon): 420 pM
- GI50 (SW-620 colon): 502 pM
- TGI (SW-620 colon): 6770 pM
- GI50 (PC-3 prostate): 337 pM
- TGI (PC-3 prostate): 2850 pM
- GI50 (CAKI-1 renal): 156 pM
- TGI (CAKI-1 renal): 6950 pM
- GI50 (SK-OV-3 ovarian): 181 pM
- TGI (SK-OV-3 ovarian): 9810 pM
- GI50 (SNB-19 CNS): 124 pM
- GI50 (SN12C renal): 107 pM
- TGI (SN12C renal): 422 pM
- GI50 (BT-549 breast): 50.3 pM
- TGI (BT-549 breast): 113 pM
- GI50 (MDA-MB-468 breast): 56.9 pM
- TGI (MDA-MB-468 breast): 119 pM
- GI50 (HCT-15 colon): 414 pM
- TGI (HCT-15 colon): 1060 pM
- GI50 (COLO 205 colon): 432 pM
- TGI (COLO 205 colon): 1060 pM
- GI50 (MOLT-4 leukemia): 14.1 pM
- TGI (MOLT-4 leukemia): 47.4 pM
- GI50 (NCI-H460 NSCLC): 104 pM
- TGI (NCI-H460 NSCLC): 446 pM
- GI50 (786-0 renal): 194 pM
- TGI (786-0 renal): 348 pM
- GI50 (RPMI-8226 leukemia): 57.9 pM
- TGI (RPMI-8226 leukemia): 108 pM
- GI50 (SR leukemia): 18.6 pM
- TGI (SR leukemia): 57.5 pM
- GI50 (OVCAR-3 ovarian): 189 pM
- TGI (OVCAR-3 ovarian): 863 pM
- GI50 (UACC-257 melanoma): 428 pM
- TGI (UACC-257 melanoma): 848 pM
- GI50 (HCT-116 colon): 160 pM
- GI50 (UO-31 renal): 1680 pM
- TGI (UO-31 renal): 3100 pM
- GI50 (UACC-62 melanoma): 87.4 pM
- TGI (UACC-62 melanoma): 310 pM
- GI50 (EKVX NSCLC): 649 pM
- TGI (EKVX NSCLC): 1490 pM
- GI50 (U251 glioblastoma): 112 pM
- TGI (U251 glioblastoma): 554 pM
- GI50 (NCI-H23 lung): 75.2 pM
- TGI (NCI-H23 lung): 194 pM
- GI50 (MDA-MB-435 melanoma): 594 pM
- TGI (MDA-MB-435 melanoma): 1100 pM
- GI50 (T-47D breast): 410 pM
- TGI (T-47D breast): 2560 pM
